Like-named read-outs stand apart in the source and are kept apart here.
Assays:
Euglena gracilis [1] = details: for absorbance of the Euglena gracilis culture solution: 680 nm; for effect on growth of Euglena gracilis (in words): acetic acid or sodium acetate 0.05-0.25% (w/v) in nutrient medium
Method: A nutrient medium for the cultivation of Euglena gracilis (prepared with triple-distilled water, KH2PO4, citrate, MgSO4·3H2O, vitamin B1, vitamin B6, vitamin B12, vitamin H, yeast extract, peptone, and dextrose) was autoclaved at 121° C. for 15 minutes. Sodium acetate (CH3COONa) was then added to the prepared nutrient medium at a concentration of 0.05% (w/v), and an inoculum of Euglena gracilis (KCTC AG40099) was introduced. The culture was incubated at 130 rpm, 28° C., and under light conditions of 100 μE photons/m^2/s. Growth was measured by monitoring absorbance at a wavelength of 680 nm.
The experiment was conducted in the same manner as in Example 11, except that acetic acid was added instead of sodium acetate.
The experiment was conducted in the same manner as in Comparative Example 2,except that acetic acid was added to the prepared nutrient medium at concentrations of 0.1% (w/v) (Comparative Example 3), 0.15% (w/v) (Comparative Example 4), 0.2% (w/v) (Comparative Example 5), and 0.25% (w/v) (Comparative Example 6), instead of sodium acetate.

Euglena gracilis [2] = assay: Growth of Euglena gracilis in peracetic acid-treated medium with sodium bicarbonate (absorbance 680 nm); assay type: cell-based; details: PAA 0.05% (w/v) with or without sodium bicarbonate 0.05-0.3% (w/v)
Method: The growth of Euglena was measured by monitoring absorbance at a wavelength of 680 nm.

[3] = Table 3, acetic acid added, cultivation time 0 Day
[4] = Table 3, acetic acid added, cultivation time 1 Day
[5] = Table 4, sodium acetate added, cultivation time 0 Day
[6] = Table 4, sodium acetate added, cultivation time 1 Day
[7] = Table 4, sodium acetate added, cultivation time 2 Days
[8] = Table 4, sodium acetate added, cultivation time 4 Days
[9] = Table 4, sodium acetate added, cultivation time 5 Days

CC(=O)O [Comparative Example 5, acetic acid]
absorbance of the Euglena gracilis culture solution (Euglena gracilis [1]; [3]): 1.686 AU
absorbance of the Euglena gracilis culture solution (Euglena gracilis [1]; [4]): 1.5025 AU

CC(=O)[O-].[Na+] [Example 13, sodium acetate]
absorbance of the Euglena gracilis culture solution (Euglena gracilis [1]; [5]): 1.3882 AU
absorbance of the Euglena gracilis culture solution (Euglena gracilis [1]; [6]): 2.1605 AU
absorbance of the Euglena gracilis culture solution (Euglena gracilis [1]; [7]): 3.861 AU
absorbance of the Euglena gracilis culture solution (Euglena gracilis [1]; [8]): 7.52 AU
absorbance of the Euglena gracilis culture solution (Euglena gracilis [1]; [9]): 8.561 AU

CC(=O)[O-].[Na+] [Example 12, sodium acetate]
absorbance of the Euglena gracilis culture solution (Euglena gracilis [1]; [5]): 1.316 AU
absorbance of the Euglena gracilis culture solution (Euglena gracilis [1]; [6]): 2.1825 AU
absorbance of the Euglena gracilis culture solution (Euglena gracilis [1]; [7]): 3.969 AU
absorbance of the Euglena gracilis culture solution (Euglena gracilis [1]; [8]): 7.739 AU
absorbance of the Euglena gracilis culture solution (Euglena gracilis [1]; [9]): 8.442 AU

CC(=O)[O-].[Na+] [sodium acetate]
effect on growth of Euglena gracilis (in words) (Euglena gracilis [1]): does not inhibit the growth of Euglena

O=C([O-])O.[Na+] [sodium bicarbonate]
growth of Euglena gracilis (in words) (Euglena gracilis [2]): does not specifically affect the growth of Euglena gracilis

CC(=O)O [Comparative Example 6, acetic acid]
absorbance of the Euglena gracilis culture solution (Euglena gracilis [1]; [3]): 1.7554 AU
absorbance of the Euglena gracilis culture solution (Euglena gracilis [1]; [4]): 1.5195 AU

CC(=O)[O-].[Na+] [Example 15, sodium acetate]
absorbance of the Euglena gracilis culture solution (Euglena gracilis [1]; [5]): 1.4034 AU
absorbance of the Euglena gracilis culture solution (Euglena gracilis [1]; [6]): 2.1945 AU
absorbance of the Euglena gracilis culture solution (Euglena gracilis [1]; [7]): 3.803 AU
absorbance of the Euglena gracilis culture solution (Euglena gracilis [1]; [8]): 7.369 AU
absorbance of the Euglena gracilis culture solution (Euglena gracilis [1]; [9]): 8.405 AU

CC(=O)[O-].[Na+] [Example 11, sodium acetate]
absorbance of the Euglena gracilis culture solution (Euglena gracilis [1]; [5]): 1.33 AU
absorbance of the Euglena gracilis culture solution (Euglena gracilis [1]; [6]): 2.2345 AU
absorbance of the Euglena gracilis culture solution (Euglena gracilis [1]; [7]): 3.898 AU
absorbance of the Euglena gracilis culture solution (Euglena gracilis [1]; [8]): 8.511 AU
absorbance of the Euglena gracilis culture solution (Euglena gracilis [1]; [9]): 9.852 AU

CC(=O)[O-].[Na+] [Example 14, sodium acetate]
absorbance of the Euglena gracilis culture solution (Euglena gracilis [1]; [5]): 1.3602 AU
absorbance of the Euglena gracilis culture solution (Euglena gracilis [1]; [6]): 2.1565 AU
absorbance of the Euglena gracilis culture solution (Euglena gracilis [1]; [7]): 3.709 AU
absorbance of the Euglena gracilis culture solution (Euglena gracilis [1]; [8]): 7.624 AU
absorbance of the Euglena gracilis culture solution (Euglena gracilis [1]; [9]): 8.665 AU

CC(=O)O [Comparative Example 2, acetic acid]
absorbance of the Euglena gracilis culture solution (Euglena gracilis [1]; [3]): 1.3738 AU
absorbance of the Euglena gracilis culture solution (Euglena gracilis [1]; [4]): 2.1945 AU
absorbance of the Euglena gracilis culture solution (Euglena gracilis [1]; Table 3, acetic acid added, cultivation time 2 Days): 3.929 AU
absorbance of the Euglena gracilis culture solution (Euglena gracilis [1]; Table 3, acetic acid added, cultivation time 4 Days): 10.34 AU
absorbance of the Euglena gracilis culture solution (Euglena gracilis [1]; Table 3, acetic acid added, cultivation time 5 Days): 11.063 AU
effect on growth of Euglena gracilis (in words) (Euglena gracilis [1]): no inhibitory effect

CC(=O)O [Comparative Example 4, acetic acid]
absorbance of the Euglena gracilis culture solution (Euglena gracilis [1]; [3]): 1.831 AU
absorbance of the Euglena gracilis culture solution (Euglena gracilis [1]; [4]): 1.598 AU

CC(=O)O [Comparative Example 3, acetic acid]
absorbance of the Euglena gracilis culture solution (Euglena gracilis [1]; [3]): 1.8372 AU
absorbance of the Euglena gracilis culture solution (Euglena gracilis [1]; [4]): 1.712 AU

From patent publication US20250084033A1, “METHOD OF PROMOTING PERACETIC ACID DECOMPOSITION USING METAL COMPOUND, AND METHOD OF CULTURING MICROORGANISMS USING SAME” (N-CELL CO.,LTD, priority 2022, published 2025)
